Species: Rattus norvegicus
Assay: DrugMatrix - Regimen: Daily Repeat
Type: toxicity, organism-based, Sprague-Dawley
Design: regimen Daily Repeat, gender Male, age 6-8 weeks
Details: in vivo, sc, route subcutaneous, […]; for ABSOLUTE BASOPHIL / ABSOLUTE EOSINOPHIL / ABSOLUTE LYMPHOCYTE / ABSOLUTE MONOCYTE / ABSOLUTE SEGMENTED NEUTROPHIL / BASOPHIL / EOSINOPHIL / ERYTHROCYTE COUNT / HEMATOCRIT / HEMOGLOBIN / LEUKOCYTE COUNT / LYMPHOCYTE / MEAN CORPUSCULAR HEMOGLOBIN / MEAN CORPUSCULAR HEMOGLOBIN CONCENTRATION / MEAN CORPUSCULAR VOLUME / MONOCYTE / NEUTROPHIL / NUCLEATED RED BLOOD CELLS / PLATELET COUNT: tissue Blood; for ALANINE AMINOTRANSFERASE / ALBUMIN / ALKALINE PHOSPHATASE / ASPARTATE AMINOTRANSFERASE / BLOOD UREA NITROGEN / CARBON DIOXIDE / CHLORIDE / CHOLESTEROL / CREATINE PHOSPHOKINASE / CREATININE / GLUCOSE / LACTATE DEHYDROGENASE / LIPASE / PHOSPHORUS / POTASSIUM / SODIUM / TOTAL BILIRUBIN / TOTAL PROTEIN / URIC ACID: tissue Plasma
[1] = 0 mg/kg, 72 h, dose level Control, time 3 day
[2] = 0 mg/kg, 120 h, dose level Control, time 5 day
[3] = 56 mg/kg, 72 h, dose level M1, time 3 day

## O=C(Nc1ccc(Br)cc1)c1cc(Br)cc(Br)c1O [TRIBROMSALAN]
[1]
  ABSOLUTE BASOPHIL: 0 CELLS/uL
  ABSOLUTE EOSINOPHIL: 42.67 CELLS/uL
  ABSOLUTE LYMPHOCYTE: 10202 CELLS/uL
  ABSOLUTE MONOCYTE: 261.5 CELLS/uL
  ABSOLUTE SEGMENTED NEUTROPHIL: 2193.83 CELLS/uL
  BASOPHIL: 0%
  EOSINOPHIL: 0.33%
  ERYTHROCYTE COUNT: 5.63 x10E6/uL
  HEMATOCRIT: 35.35%
  HEMOGLOBIN: 13.07 G/DL
  LEUKOCYTE COUNT: 12.7 x10E3/uL
  LYMPHOCYTE: 81.17%
  MEAN CORPUSCULAR HEMOGLOBIN: 23.23 pg
  MEAN CORPUSCULAR HEMOGLOBIN CONCENTRATION: 36.97 G/DL
  MEAN CORPUSCULAR VOLUME: 62.82 fL
  MONOCYTE: 2%
  NEUTROPHIL: 16.5%
  NUCLEATED RED BLOOD CELLS: 0 /100WBC
  PLATELET COUNT: 1180.33 x10E3/uL
  ALANINE AMINOTRANSFERASE: 48.67 u/L
  ALBUMIN: 4.08 G/DL
  ALKALINE PHOSPHATASE: 360.67 u/L
  ASPARTATE AMINOTRANSFERASE: 85.5 u/L
  BLOOD UREA NITROGEN: 17.83 mg/dL
  CARBON DIOXIDE: 26.17 mmol/L
  CHLORIDE: 101.83 MEQ/L
  CHOLESTEROL: 71 mg/dL
  CREATINE PHOSPHOKINASE: 515.17 u/L
  CREATININE: 0.22 mg/dL
  GLUCOSE: 192.5 mg/dL
  LACTATE DEHYDROGENASE: 214.67 u/L
  LIPASE: 8.5 u/L
  PHOSPHORUS: 12.95 mg/dL
  POTASSIUM: 6.39 MEQ/L
  SODIUM: 142.38 MEQ/L
  TOTAL BILIRUBIN: 0.18 mg/dL
  TOTAL PROTEIN: 5.95 G/DL
  URIC ACID: 1.83 mg/dL
[2]
  ABSOLUTE BASOPHIL: 0 CELLS/uL
  ABSOLUTE EOSINOPHIL: 188.5 CELLS/uL
  ABSOLUTE LYMPHOCYTE: 12360.83 CELLS/uL
  ABSOLUTE MONOCYTE: 64.33 CELLS/uL
  ABSOLUTE SEGMENTED NEUTROPHIL: 1986.33 CELLS/uL
  BASOPHIL: 0%
  EOSINOPHIL: 1.33%
  ERYTHROCYTE COUNT: 5.52 x10E6/uL
  HEMATOCRIT: 35.82%
  HEMOGLOBIN: 13.25 G/DL
  LEUKOCYTE COUNT: 14.6 x10E3/uL
  LYMPHOCYTE: 84.5%
  MEAN CORPUSCULAR HEMOGLOBIN: 24.05 pg
  MEAN CORPUSCULAR HEMOGLOBIN CONCENTRATION: 36.98 G/DL
  MEAN CORPUSCULAR VOLUME: 64.97 fL
  MONOCYTE: 0.5%
  NEUTROPHIL: 13.67%
  NUCLEATED RED BLOOD CELLS: 0 /100WBC
  PLATELET COUNT: 1297.83 x10E3/uL
  ALANINE AMINOTRANSFERASE: 51.17 u/L
  ALBUMIN: 4.08 G/DL
  ALKALINE PHOSPHATASE: 393.17 u/L
  ASPARTATE AMINOTRANSFERASE: 111 u/L
  BLOOD UREA NITROGEN: 18.17 mg/dL
  CARBON DIOXIDE: 25 mmol/L
  CHLORIDE: 105.17 MEQ/L
  CHOLESTEROL: 65.5 mg/dL
  CREATINE PHOSPHOKINASE: 911.5 u/L
  CREATININE: 0.21 mg/dL
  GLUCOSE: 183 mg/dL
  LACTATE DEHYDROGENASE: 189 u/L
  LIPASE: 8.33 u/L
  PHOSPHORUS: 12.78 mg/dL
  POTASSIUM: 6.05 MEQ/L
  SODIUM: 144.57 MEQ/L
  TOTAL BILIRUBIN: 0.25 mg/dL
  TOTAL PROTEIN: 5.83 G/DL
  URIC ACID: 1.58 mg/dL
[3]
  ABSOLUTE BASOPHIL: 0 CELLS/uL
  ABSOLUTE EOSINOPHIL: 245 CELLS/uL
  ABSOLUTE LYMPHOCYTE: 12670.67 CELLS/uL
  ABSOLUTE MONOCYTE: 0 CELLS/uL
  ABSOLUTE SEGMENTED NEUTROPHIL: 1651 CELLS/uL
  BASOPHIL: 0%
  EOSINOPHIL: 1.67%
  ERYTHROCYTE COUNT: 5.81 x10E6/uL
  HEMATOCRIT: 35.97%
  HEMOGLOBIN: 13.47 G/DL
  LEUKOCYTE COUNT: 14.57 x10E3/uL
  LYMPHOCYTE: 87.33%
  MEAN CORPUSCULAR HEMOGLOBIN: 23.27 pg
  MEAN CORPUSCULAR HEMOGLOBIN CONCENTRATION: 37.43 G/DL
  MEAN CORPUSCULAR VOLUME: 62.03 fL
  MONOCYTE: 0%
  NEUTROPHIL: 11%
  NUCLEATED RED BLOOD CELLS: 0 /100WBC
  PLATELET COUNT: 1364.67 x10E3/uL
  ALANINE AMINOTRANSFERASE: 47.67 u/L
  ALBUMIN: 4.2 G/DL
  ALKALINE PHOSPHATASE: 292.33 u/L
  ASPARTATE AMINOTRANSFERASE: 78.67 u/L
  BLOOD UREA NITROGEN: 14.67 mg/dL
  CARBON DIOXIDE: 25 mmol/L
  CHLORIDE: 102.33 MEQ/L
  CHOLESTEROL: 80.67 mg/dL
  CREATINE PHOSPHOKINASE: 290.33 u/L
  CREATININE: 0.19 mg/dL
  GLUCOSE: 173.67 mg/dL
  LACTATE DEHYDROGENASE: 127.33 u/L
  LIPASE: 8.33 u/L
  PHOSPHORUS: 12.7 mg/dL
  POTASSIUM: 5.88 MEQ/L
  SODIUM: 145.47 MEQ/L
  TOTAL BILIRUBIN: 0.2 mg/dL
  TOTAL PROTEIN: 6.23 G/DL
  URIC ACID: 1.67 mg/dL

— ChEMBL document CHEMBL3885881, “DrugMatrix”
